# Reference: patent US20250263436A1, “BROAD-SPECTRUM ANTIVIRAL DRUG FOR ENTEROVIRUS, AND APPLICATION” (WUHAN INSTITUTE OF VIROLOGY, CHINESE ACADEMY OF SCIENCES, priority 2020, published 2025)
# Values joined by “and” are separate entries in the source; they are usually repeats but may differ in a detail not shown here. Equal values may be shown once.
# Experiments:
# [1] = Cytotoxicity of polypeptides in Vero cells (CCK-8); type: cell-based; details: for CC50 at 24 h: African green monkey, Table 1 (Vero cells); for viability at 24 h, 0.073242 µM: polypeptide 0.073242 μM; for viability at 24 h, 0.146484 µM: polypeptide 0.146484 μM; for viability at 24 h, 0.292969 µM: polypeptide 0.292969 μM; for viability at 24 h, 0.585938 µM: polypeptide 0.585938 μM; for viability at 24 h, 1.17188 µM: polypeptide 1.171875 μM; for viability at 24 h, 2.34375 µM: polypeptide 2.34375 μM; for viability at 24 h, 4.6875 µM: polypeptide 4.6875 μM; for viability at 24 h, 9.375 µM: polypeptide 9.375 μM; for viability at 24 h, 18.75 µM: polypeptide 18.75 μM; for viability at 24 h, 150 µM: polypeptide 150 μM
# Protocol: (§1) Therefore, this standard was testified by cytotoxicity assay, and the cells without any treatment were used as a control group.
# (§2) (1) Vero cells were plated in a 96-well plate at 100 μL per well.
# (§3) (2) When the cells grew to a confluence of 70%-80%, the DMEM medium containing 10% serum was replaced with a DMEM medium containing 2% serum, and a certain concentration gradient of polypeptide RQ or LQ or SQ was added, so that the final concentrations of the polypeptide in the wells were 0.073242 μM, 0.146484 μM, 0.292969 μM, 0.585938 μM, 1.171875 μM, 2.34375 μM, 4.6875 μM, 9.375 μM, 18.75 μM, 37.5 μM, 75 μM and 150 μM, respectively.
# (§4) (3) The samples were collected 24 h after the addition of the polypeptide, and then 10 μL of live cell detection reagent CCK-8 was added to each well and mixed well.
# (§5) (4) The plate was placed at 37° C. for 2 h.
# (§6) (5) The absorbance value at OD450 was detected by a microplate reader.
# (§7) The CC50 of each polypeptide was calculated taking the cell viability of untreated cells as 100%.
# Vero cells = assay: Cytotoxicity of polypeptides in Vero cells (CCK-8); type: cell-based; details: Vero cells, 24 h
# Protocol: as §1, §2, §3, §4, §5, §6, §7
# EV71 [2] = assay: Inhibition of EV71 in Vero cells (viral RNA, qRT-PCR); type: cell-based, enterovirus 71 (EV71); details: anti-EV71 in Vero cells
# Protocol: (§8) (1) Different cells were plated in a 24-well plate.
# (§9) (2) When the cells grew to a confluence of 70%-80%, the DMEM medium containing 10% serum was replaced with a DMEM medium containing 2% serum (the DMEM medium containing 2% serum was added in each well at an amount of 0.5 mL), and 5 μL of EV71 virus of 1×10^6 PFU/mL was added to each well.
# (§10) (3) After 1 h, different polypeptides (RQ or control TAT) with final concentrations of 0.3125 μM, 0.625 μM, 1.25 μM, 2.5 μM, and 5 μM were added respectively. The group without polypeptide added was used as a control.
# (§11) (4) The samples were collected 24 h after the infection of EV71 virus, and RNA was extracted with the total RNA extraction kit.
# (§12) (5) The supernatant was discarded, then 350 μL of TRK lysate was added to each well, and the plate was put on a shaker for 5 min.
# (§13) (6) 350 μL of 70% ethanol (DEPC) was added to each well, and then the plate was put on a shaker for 5 min.
# (§14) (7) The solution in each well was transferred to a RNA extraction column for 1 min of centrifugation at 12000 g.
# (§15) (8) The solution obtained in the recovery tube was reloaded on the column again for 1 min of centrifugation at 12000 g.
# (§16) (9) RNA washing buffer 1 was added in the column for 30 s of centrifugation at 12000 g.
# (§17) (10) RNA washing buffer 2 was added in the column for 1 min of centrifugation at 12000 g.
# (§18) (11) Step (10) was repeated.
# (§19) (12) The column alone was centrifuged at 12000 g for 2 min to completely remove the residual RNA washing buffer.
# (§20) (13) 50 μL of DEPC water was added to the column for 2 min of centrifugation at 12000 g.
# (§21) (14) 2 μL of RNA sample was subjected to a fluorescence quantitative experiment using the one step qRT-PCR kit.
# (1) Vero E6 cells were plated in a 24-well plate.
# (3) After 1 h, different polypeptides (LQ or SQ) with final concentrations of 0.3125 μM, 0.625 μM, 1.25 μM, 2.5 μM, and 5 μM were added respectively. The group without polypeptide added was used as a control.
# EV71 [3] = assay: Inhibition of EV71 in RD cells (viral RNA, qRT-PCR); type: cell-based, enterovirus 71 (EV71); details: EV71, 24 h after infection
# Protocol: as §8, §9, §10, §11, §12, §13, §14, §15, §16, §17, §18, §19, §20, §21
# (3) After 1 h, different polypeptides (RQ or control TAT) with final concentrations of 0.3125 μM, 0.625 μM, 1.25 μM, 2.5 μM and 5 μM were added respectively. The group without polypeptide added was used as a control.
# [4] = Vero cells, 24 h, read-out: Cell viability (%)
Compound,CC50 at 24 h [1] [µM],"viability at 24 h, 0.073242 µM [1, 4] [%]","viability at 24 h, 0.146484 µM [1, 4] [%]","viability at 24 h, 0.292969 µM [1, 4] [%]","viability at 24 h, 0.585938 µM [1, 4] [%]","viability at 24 h, 1.17188 µM [1, 4] [%]","viability at 24 h, 2.34375 µM [1, 4] [%]","viability at 24 h, 4.6875 µM [1, 4] [%]","viability at 24 h, 9.375 µM [1, 4] [%]","viability at 24 h, 18.75 µM [1, 4] [%]","viability at 24 h, 150 µM [1, 4] [%]",Cell viability (%) (Vero cells; polypeptide 0.073242 μM),Cell viability (%) (Vero cells; polypeptide 0.146484 μM),Cell viability (%) (Vero cells; polypeptide 0.292969 μM),Cell viability (%) (Vero cells; polypeptide 0.585938 μM),Cell viability (%) (Vero cells; polypeptide 1.171875 μM),Cell viability (%) (Vero cells; polypeptide 2.34375 μM),Cell viability (%) (Vero cells; polypeptide 4.6875 μM),Cell viability (%) (Vero cells; polypeptide 9.375 μM),Cell viability (%) (Vero cells; polypeptide 18.75 μM),other results
CC[C@H](C)[C@H](NC(=O)[C@H](C)NC(=O)[C@H](CO)NC(=O)[C@H](CCCNC(=N)N)NC(=O)[C@H](CC(N)=O)NC(=O)[C@H](CC(N)=O)NC(=O)[C@H](Cc1ccc(O)cc1)NC(=O)[C@H](CCC(=O)O)NC(=O)[C@H](CCCNC(=N)N)NC(=O)[C@@H](NC(=O)[C@H](CC(C)C)NC(=O)CNC(=O)[C@H](CO)NC(=O)CNC(=O)[C@H](CCCNC(=N)N)NC(=O)[C@H](CCCNC(=N)N)NC(=O)[C@H](CCCNC(=N)N)NC(=O)[C@H](CCC(N)=O)NC(=O)[C@H](CCCNC(=N)N)NC(=O)[C@H](CCCNC(=N)N)NC(=O)[C@H](CCCCN)NC(=O)[C@H](CCCCN)NC(=O)[C@H](CCCNC(=N)N)NC(=O)CNC(=O)[C@@H](N)Cc1ccc(O)cc1)[C@@H](C)CC)C(=O)NCC(=O)N[C@@H](CC(N)=O)C(=O)N[C@H](C(=O)N[C@H](C(=O)N[C@@H](CCC(=O)O)C(=O)N[C@@H](C)C(=O)N[C@@H](CC(C)C)C(=O)N[C@@H](Cc1ccccc1)C(=O)N[C@@H](CCC(N)=O)C(=O)O)[C@@H](C)CC)[C@@H](C)O [LQ],> 150,100,103,112,110,111,105,111,114,109,72.2,105.9% and 97.02%,104.7744% and 101.9913%,106.5265% and 104.7619%,110.5563% and 108.0087%,115.1555% and 110.4762%,106.3075% and 107.1861%,104.8489% and 112.5108%,119.5795% and 113.5931%,115.6373% and 110.3247%,"viability at 24 h, 37.5 µM ([1]; Vero cells, polypeptide 37.5 μM, 24 h, read-out: Cell viability (%)): 117%; Cell viability (%) (Vero cells; polypeptide 37.5 μM): 99.1853% and 97.1429%; Cell viability (%) (Vero cells; polypeptide 75 μM): 108.2318% and 87.6084% and 90.8658%; Cell viability (%) (Vero cells; polypeptide 150 μM): 83.0968% and 80.9091%; IC50 (EV71 [2]): 2.26 µM"
CC[C@H](C)[C@H](NC(=O)[C@H](C)NC(=O)[C@H](CO)NC(=O)[C@H](CCCNC(=N)N)NC(=O)[C@H](CC(N)=O)NC(=O)[C@H](CC(N)=O)NC(=O)[C@H](Cc1ccc(O)cc1)NC(=O)[C@H](CCC(=O)O)NC(=O)[C@H](CCCNC(=N)N)NC(=O)[C@@H](NC(=O)[C@H](CC(C)C)NC(=O)[C@H](CCC(=O)O)NC(=O)[C@H](CO)NC(=O)CNC(=O)[C@H](CO)NC(=O)CNC(=O)[C@H](CCCNC(=N)N)NC(=O)[C@H](CCCNC(=N)N)NC(=O)[C@H](CCCNC(=N)N)NC(=O)[C@H](CCC(N)=O)NC(=O)[C@H](CCCNC(=N)N)NC(=O)[C@H](CCCNC(=N)N)NC(=O)[C@H](CCCCN)NC(=O)[C@H](CCCCN)NC(=O)[C@H](CCCNC(=N)N)NC(=O)CNC(=O)[C@@H](N)Cc1ccc(O)cc1)[C@@H](C)CC)C(=O)NCC(=O)N[C@@H](CC(N)=O)C(=O)N[C@H](C(=O)N[C@H](C(=O)N[C@@H](CCC(=O)O)C(=O)N[C@@H](C)C(=O)N[C@@H](CC(C)C)C(=O)N[C@@H](Cc1ccccc1)C(=O)N[C@@H](CCC(N)=O)C(=O)O)[C@@H](C)CC)[C@@H](C)O [SQ],134,104,98,101,94.4,90.1,96.6,105,99.5,106,70,103.4468% and 96.07%,94.606% and 92.7401%,103.1624% and 100.4524%,103.9959% and 100.6225%,94.07% and 98.81%,101.1325% and 99.03%,106.7734% and 95.3706%,102.9859% and 103.7701%,100.481% and 90.25%,Cell viability (%) (Vero cells; polypeptide 37.5 μM): 100.7644% and 90.65% and 80.6%; Cell viability (%) (Vero cells; polypeptide 75 μM): 90.36% and 95.75% and 70.31%; Cell viability (%) (Vero cells; polypeptide 150 μM): 80.35% and 60.9948%; IC50 (EV71 [2]): 10.3 µM
AC-qflaeitngiasrnnyergsgrrrqrrkkrgy-NH2 [RQ-DRI],–,–,–,–,–,–,–,–,–,–,–,–,–,–,–,–,–,–,–,–,Percentage of viral RNA in RD cells (%) (EV71 [3]; polypeptide 0.3125 μM): 90.2% and 150.7832% and 85.04%; Percentage of viral RNA in RD cells (%) (EV71 [3]; polypeptide 0.625 μM): 113.2834% and 92.13% and 108.0728%; Percentage of viral RNA in RD cells (%) (EV71 [3]; polypeptide 1.25 μM): 93.12% and 79.48% and 58.29%; Percentage of viral RNA in RD cells (%) (EV71 [3]; polypeptide 2.5 μM): 24.4% and 38.77% and 23.45%; Percentage of viral RNA in RD cells (%) (EV71 [3]; polypeptide 5 μM): 21.2764% and 19.04% and 17.19%
MBP-CVA16 2C protein,–,–,–,–,–,–,–,–,–,–,–,–,–,–,–,–,–,–,–,–,"helicase activity (unwinding of HEX-labeled dsRNA substrate, gel electrophoresis) (polypeptide RQ): RQ inhibited the helicase activity of CVA16 2C in a dose-dependent manner"
